IC50 data for 1 compound are collected here from patent publication US5085992A, “Microbial transformation process for antihypertensive products” (Merck & Co., Inc., priority 1991, dated 1992).

The structures appear in SMILES notation. Some results are limits rather than exact numbers.

In the assay the target is T1, Angiotensin II (A II) receptor (Oryctolagus cuniculus, UniProt P34976).
T1 construct: tissue Pel-Freeze Biologicals; host or cells: rabbit aorta, membrane preparation (frozen aortae)
T1 sequence (P34976 1-359): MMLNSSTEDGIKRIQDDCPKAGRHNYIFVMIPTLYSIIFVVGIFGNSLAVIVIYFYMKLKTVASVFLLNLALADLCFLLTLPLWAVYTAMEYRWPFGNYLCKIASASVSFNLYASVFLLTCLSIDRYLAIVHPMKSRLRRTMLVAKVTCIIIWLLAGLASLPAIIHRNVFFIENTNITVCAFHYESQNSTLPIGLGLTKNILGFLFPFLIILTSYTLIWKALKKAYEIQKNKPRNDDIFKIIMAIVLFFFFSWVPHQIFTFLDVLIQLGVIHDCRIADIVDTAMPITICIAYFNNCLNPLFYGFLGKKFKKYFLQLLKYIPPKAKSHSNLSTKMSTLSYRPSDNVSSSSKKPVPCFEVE
Description: Receptor binding assay using rabbit aortae membrane preparation ("IC50" assay; displacement of 125I-Sar1 Ile8-angiotensin II). The note with it: membrane preparation derived from rabbit aortae; 37° C., 90 minutes; read-out: inhibitory concentration (IC50) giving 50% displacement of the total specifically bound 125I-Sar1 Ile8-angiotensin II. The protocol: This assay is also referred to herein as the "IC 50 "assay.
RECEPTOR BINDING ASSAY USING RABBIT AORTAE MEMBRANE PREPARATION
Three frozen rabbit aortae (obtained from Pel-Freeze Biologicals) were suspended in 5 mM Tris-0.25 M Sucrose, pH 7.4 buffer (50 ml) homogenized, and then centifuged. The mixture was filtered through a cheesecloth and the supernatant was centrifuged for 30 minutes at 20,000 rpm at 4° C. The pellet thus obtained was resuspended in 30 ml of 50 mM Tris-5 mM MgCl2 buffer containing 0.2% Bovine Serum Albumin and 0.2 mg/ml Bacitration and the suspension was used for 100 assay tubes. Samples tested for screening were done in duplicate. To the membrane preparation (0.25 ml) there was added ^125 I-Sar^1 Ile^8 -angiotensin II [obtained from New England Nuclear] (10 ul; 20,000 cpm) with or without the test sample and the mixture was incubated at 37° C. for 90 minutes. The mixture was then diluted with ice-cold 50 mM Tris-0.9% NaCl, pH 7.4 (4 ml) and filtered through a glass fiber filter (GF/B Whatman 2.4" diameter). The filter was soaked in scintillation cocktail (10 ml) and counted for radioactivity using Packard 2660 Tricarb liquid scintillation counter. […]

`CCc1nc2c(C)cc(C)nc2n1Cc1ccc(-c2ccccc2-c2nnn([C@@H]3O[C@H](C(=O)O)[C@@H](O)[C@H](O)[C@H]3O)n2)cc1` [compound (I)]: the IC50 is less than 50 µM.
